Test results: paper PMC7179274, “6′-β-Fluoro-Homoaristeromycin and 6′-Fluoro-Homoneplanocin A Are Potent Inhibitors of Chikungunya Virus Replication through Their Direct Effect on Viral Nonstructural Protein 1” (Antimicrobial Agents and Chemotherapy, 2020)
Positions count from the first letter of the chain named. Entries after “also recorded” stand apart in the source; their conditions may differ. Like-named read-outs stand apart in the source and are kept apart here.

What was measured:
rCHIKV mutants = test: microbe, parasite or virus in culture; format: cell-based, Chikungunya virus; details: for Fold resistance: EC50 mutant/EC50 wt
SFV nsP1 K231R+K300E = target: T1, SFV nsP1 K231R+K300E (Semliki forest virus, UniProt P08411, K231R/K300E); format: biochemical; details: 0 to 1 mM, 10 μM SAM, normalized to untreated control
T1 sequence (P08411 1-537 K231R/K300E): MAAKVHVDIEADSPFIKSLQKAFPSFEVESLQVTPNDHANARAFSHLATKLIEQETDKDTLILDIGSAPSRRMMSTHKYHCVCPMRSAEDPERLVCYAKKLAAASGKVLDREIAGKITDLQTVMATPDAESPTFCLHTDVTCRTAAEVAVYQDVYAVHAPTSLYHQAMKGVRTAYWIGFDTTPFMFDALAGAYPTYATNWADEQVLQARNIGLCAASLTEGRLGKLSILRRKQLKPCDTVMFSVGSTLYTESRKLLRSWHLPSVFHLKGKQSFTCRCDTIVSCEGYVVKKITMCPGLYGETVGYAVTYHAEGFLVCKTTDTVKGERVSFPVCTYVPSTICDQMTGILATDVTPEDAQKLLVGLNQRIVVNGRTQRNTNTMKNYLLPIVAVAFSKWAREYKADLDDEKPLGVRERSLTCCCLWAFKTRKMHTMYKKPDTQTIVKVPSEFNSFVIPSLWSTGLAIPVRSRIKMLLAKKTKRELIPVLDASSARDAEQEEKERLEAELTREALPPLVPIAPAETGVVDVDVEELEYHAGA

wt SFV nsP1 = target: T2, wt SFV nsP1 (Semliki forest virus, UniProt P08411); test: nsP1 enzymatic activity assay (m7GMP-nsP1 intermediate formation), wt
T2 sequence (P08411 1-537): T1 sequence (P08411 1-537 K231R/K300E) with R231K, E300K

VeroE6 cells = test: Cytotoxicity in uninfected cells (MTS/PMS) of the CPE reduction assay
SINV = test: CPE reduction assay, SINV; details: VeroE6 cells, MOI 0.025
SFV = test: CPE reduction assay, SFV
CHIKV = test: CPE reduction assay, CHIKV
[1] = target: host enzyme SAH hydrolase; parameters: method as in PMID 26010585; details: in vitro; read-out: 50% inhibitory concentration, SAH hydrolase; cited from earlier work
[2] = Chikungunya virus, Vero C1008, read-out: Mean EC50 ± SD
[3] = Chikungunya virus, read-out: Mean EC50 ± SD
[4] = rCHIKV nsP1-G230R + nsP1-K299E + nsP3-*524R
[5] = rCHIKV nsP1-G230R + nsP1-K299E + nsP3-*524R, read-out: Mean EC50 ± SD
[6] = rCHIKV nsP1-G230R + nsP1-K299E, read-out: Mean EC50 ± SD
[7] = rCHIKV nsP1-R171Q, read-out: Mean EC50 ± SD

| Molecule | EC50 (rCHIKV mutants; [2]) [µM] | EC50 (rCHIKV mutants; [3]) [µM] | Fold resistance (rCHIKV mutants; [4]) | EC50 (rCHIKV mutants; [5]) [µM] | Fold resistance (rCHIKV mutants; rCHIKV nsP1-G230R + nsP1-K299E) | EC50 (rCHIKV mutants; [6]) [µM] | Fold resistance (rCHIKV mutants; rCHIKV nsP1-R171Q) | EC50 (rCHIKV mutants; [7]) [µM] | also measured |
| --- | --- | --- | --- | --- | --- | --- | --- | --- | --- |
| O=c1cnn([C@@H]2O[C@H](CO)[C@@H](O)[C@H]2O)c(=O)[nH]1 [6-Azauridine, 6-azauridine, reference compound] | 0.3 ± 0.01 | 8.9 ± 3.4 | 4 | 0.9 ± 0.1 | 4 | 1.1 ± 0.1 | 3 | 0.8 ± 0.1 |  |
| Nc1ncnc2c1ncn2[C@@H]1O[C@H](CSCC[C@H](N)C(=O)O)[C@@H](O)[C@H]1O [SAH, S-adenosylhomocysteine, reference compound] |  |  |  |  |  |  |  |  | Inhibition of mutant compared to wt SFV nsP1 (SFV nsP1 K231R+K300E): inhibited by SAH to a similar extent; also recorded: inhibited by SAH to the same extent; Inhibition of m7GMP-nsP1 formation, dose response (wt SFV nsP1; 0 to 1 mM, 10 μM SAM): inhibited in a dose-dependent manner; Inhibition of m7GMP-nsP1 formation (wt SFV nsP1; 1 mM, 100-fold molar excess over SAM (10 μM SAM)): fully inhibited |
| CCc1nc2c(nnn2-c2cccc(OC(C)C)c2)c(=O)[nH]1 [MADTP-372, reference compound] |  |  |  |  |  |  |  |  | Effect on formation of m7GMP-nsP1 intermediate (control compound) (wt SFV nsP1; 50 μM, 5 or 10 μM SAM): clearly inhibited the reaction |
| COc1c(C)c2c(c(O)c1C/C=C(\C)CCC(=O)O)C(=O)OC2 [Mycophenolic acid, mycophenolic acid, reference compound] | 0.4 ± 0.01 | 6.3 ± 11.4 | 1 | 0.5 ± 0.03 | 3 | 1.1 ± 0.5 | 11 | 4.2 ± 2.8 |  |
| 6′-β-fluoro-homoaristeromycin [FHA] |  |  |  |  |  |  |  |  | Resistance of rCHIKV G230R+K299E to the compound (rCHIKV mutants; rCHIKV G230R+K299E): resistant; CC50 (VeroE6 cells; read-out: CC50 (CHIKV assay), CHIKV assay format): > 250 µM; CC50 (VeroE6 cells; read-out: CC50 (SFV assay), SFV assay format): > 250 µM; CC50 (VeroE6 cells; read-out: CC50 (SINV assay), SINV assay format): > 250 µM; Protection against SINV infection (SINV): did not confer protection; SI (SFV) (SFV; CC50/EC50): >64; EC50 (SFV; read-out: EC50 (SFV), VeroE6 cells, MOI 0.025, MTS at 40 hpi, mean ± SD): 3.9 ± 3.5 µM; SI (CHIKV) (CHIKV; CC50/EC50): >1,000; EC50 (CHIKV; read-out: EC50 (CHIKV), VeroE6 cells, MOI 0.005, MTS at 96 hpi, mean ± SD): 0.12 ± 0.04 µM; IC50 [1]: 0.37 µM |
